Patent US10806795B2, “Bispecific anti-hapten/anti-blood brain barrier receptor antibodies, complexes thereof and their use as blood brain barrier shuttles” (Hoffmann-La Roche Inc., priority 2014, dated 2020)
“Also recorded” adds a separate entry of the source. Starred links: 1 amine or outer side, 2 acyl side, 3 side chain; linkers in the order of their positions; H or OH if unused. Non-standard residues stand in square brackets, D forms with d. No end group written: not given here. Pqa = (4-oxo-6-piperazin-1-yl-4H-quinazolin-3-yl)-acetic acid in the backbone, O=C(Cn1cnc2ccc(N3CCN([*:1])CC3)cc2c1=O)[*:2]; NMeR = CN[C@@H](CCCNC(=N)N)C(=O)O

Key:
[1] = Serum stability of digoxigenylated polypeptide, free or antibody-complexed (Western Blot-related assay of serum); type: in vivo, mice (strain NMRI); settings: 32.1 nmol, serum 0.08 h, 2 h, 4 h, 24 h, listed as non-complexed polypeptide
Description: Serum samples were stored at −80° C.
The determination of the amount of digoxigenylated peptide in the serum at the given time points was difficult compared to the detection of Dig-Cy5 as no direct means to detect the polypeptide in serum samples was available. Therefore, a Western Blot-related assay to detect digoxigenylated peptide in serum was established. In a first step, the serum samples were separated on reducing SDS-PAGE. Because sample preparation included exposure of the serum to high concentrations of SDS and reducing agents, complexed Dig-polypeptide conjugates can become released from the (completely denatured/unfolded) anti-digoxigenin antibody, whereas covalent conjugates remained bound. To mediate the release of the polypeptide from the non-covalent antibody complex and separate the individual components by SDS-PAGE, 2 μl of each serum sample was diluted in 18 μl 20 mM histidine/140 mM NaCl pH 6.0, mixed with 6.7 μl of 4×LDS sample buffer and 3 μl of 10× sample reducing agent (NuPAGE, Invitrogen) for 5 min at 95° C. As a control, 2 μl of serum of an untreated mouse of the same strain was used. […] Digoxigenylated polypeptides were subsequently detected on the membrane with an anti-digoxigenin antibody. […] Chemiluminescence was detected with the Lumilmager F1 (Roche) with an exposure time of 20 min.

NPY4R = NPY4R (Homo sapiens, UniProt P50391); assay: Effect on the Y2Receptor family: NPY4R
NPY5R = molecular target: T1, NPY5R (Homo sapiens, UniProt Q15761); assay: Effect on the Y2Receptor family: NPY5R
T1 sequence (Q15761 1-445): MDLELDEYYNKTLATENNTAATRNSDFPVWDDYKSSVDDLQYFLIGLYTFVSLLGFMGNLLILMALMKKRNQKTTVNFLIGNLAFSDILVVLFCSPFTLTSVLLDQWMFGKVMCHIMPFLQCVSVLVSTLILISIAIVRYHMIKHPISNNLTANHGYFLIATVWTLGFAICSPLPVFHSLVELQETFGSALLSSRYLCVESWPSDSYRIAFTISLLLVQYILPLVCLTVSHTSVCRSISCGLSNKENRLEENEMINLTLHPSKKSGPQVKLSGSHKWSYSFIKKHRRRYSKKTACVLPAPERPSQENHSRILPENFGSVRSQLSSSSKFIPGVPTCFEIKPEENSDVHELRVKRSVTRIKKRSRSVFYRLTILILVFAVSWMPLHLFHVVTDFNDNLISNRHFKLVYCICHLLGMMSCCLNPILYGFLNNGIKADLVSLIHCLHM

NPY1R = molecular target: T2, NPY1R (Homo sapiens, UniProt P25929); assay: Effect on the Y2Receptor family: NPY1R
T2 sequence (P25929 1-384): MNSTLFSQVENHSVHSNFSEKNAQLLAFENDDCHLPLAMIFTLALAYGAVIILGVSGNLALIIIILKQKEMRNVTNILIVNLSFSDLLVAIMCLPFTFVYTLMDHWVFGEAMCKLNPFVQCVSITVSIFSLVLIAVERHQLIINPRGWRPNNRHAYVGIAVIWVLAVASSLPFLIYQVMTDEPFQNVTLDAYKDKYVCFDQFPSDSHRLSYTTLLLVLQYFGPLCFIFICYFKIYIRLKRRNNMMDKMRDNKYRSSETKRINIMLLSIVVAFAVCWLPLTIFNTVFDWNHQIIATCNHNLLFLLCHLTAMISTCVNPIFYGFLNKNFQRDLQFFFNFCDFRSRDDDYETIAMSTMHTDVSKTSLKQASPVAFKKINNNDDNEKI

NPY2R = molecular target: T3, NPY2R (Homo sapiens, UniProt P49146); assay: Effect on the Y2Receptor family: NPY2R
T3 sequence (P49146 1-381): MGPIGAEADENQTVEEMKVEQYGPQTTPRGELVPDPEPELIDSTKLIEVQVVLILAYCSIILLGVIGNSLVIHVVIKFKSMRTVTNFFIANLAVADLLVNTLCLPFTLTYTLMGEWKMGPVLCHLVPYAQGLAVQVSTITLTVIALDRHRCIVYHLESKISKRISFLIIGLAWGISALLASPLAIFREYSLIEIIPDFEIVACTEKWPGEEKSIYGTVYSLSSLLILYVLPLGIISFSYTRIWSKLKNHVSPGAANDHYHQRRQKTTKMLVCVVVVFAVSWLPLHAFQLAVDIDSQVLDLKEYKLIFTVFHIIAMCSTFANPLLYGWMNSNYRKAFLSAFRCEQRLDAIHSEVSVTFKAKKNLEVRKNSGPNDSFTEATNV

[2] = set-up: species or system mice; settings: mouse, in vivo
Excerpt: The control group was not pre-injected with the anti-biotin antibody.

[3] = molecular target: anti-helicar motif amino acid sequence antibody; assay: Binding [Kd] of PYY peptides by anti-helicar motif amino acid sequence antibody

Sequence of NPY4R (P50391 whole entry, species assumed): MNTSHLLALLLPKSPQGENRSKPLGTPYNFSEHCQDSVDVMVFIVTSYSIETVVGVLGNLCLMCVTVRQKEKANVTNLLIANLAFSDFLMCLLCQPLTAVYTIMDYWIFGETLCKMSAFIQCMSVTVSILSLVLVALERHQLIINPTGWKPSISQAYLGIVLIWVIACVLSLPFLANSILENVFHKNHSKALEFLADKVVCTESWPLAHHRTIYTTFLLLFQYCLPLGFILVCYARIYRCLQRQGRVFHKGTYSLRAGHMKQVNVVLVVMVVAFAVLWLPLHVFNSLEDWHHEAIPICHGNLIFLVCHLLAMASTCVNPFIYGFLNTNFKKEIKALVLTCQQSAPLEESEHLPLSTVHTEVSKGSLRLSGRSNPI

Compound | presence/amount of the digoxigenin polypeptide in murine serum [1] | NPY4R (NPY4R) | NPY5R (NPY5R) | NPY1R (NPY1R) | NPY2R (NPY2R) [nM] | serum half-life and exposure levels [2] | Kd [3] [µM]
CC[C@H](C)[C@H](NC(C)=O)C(=O)N[C@@H](CCCCNC(=O)CCOCCOCCOCCNC(=O)CO[C@H]1CC[C@@]2(C)[C@H](CC[C@@H]3[C@@H]2C[C@@H](O)[C@]2(C)[C@@H](C4=CC(=O)OC4)CC[C@]32O)C1)C(=O)N1CCN(c2ccc3ncn(CC(=O)N[C@@H](CCCNC(=N)N)C(=O)N[C@@H](Cc4c[nH]cn4)C(=O)N[C@@H](Cc4ccc(O)cc4)C(=O)N[C@@H](CC(C)C)C(=O)N[C@@H](CC(N)=O)C(=O)N[C@@H](Cc4c[nH]c5ccccc45)C(=O)N[C@H](C(=O)N[C@H](C(=O)N[C@@H](CCCNC(=N)N)C(=O)N[C@@H](CCC(N)=O)C(=O)N(C)[C@@H](CCCNC(=N)N)C(=O)N[C@@H](Cc4ccc(O)cc4)C(N)=O)[C@@H](C)O)C(C)C)c(=O)c3c2)CC1 [Ac-PYY(PEG3-Dig)] | barely any signal associable to the small polypeptide was detectable even at the earliest time point; also recorded: very short half-life in the serum of mice |  |  |  |  |  | 
Ac-Ile-Lys-Pqa-Arg-His-Tyr-Leu-Asn-Trp-Val-Thr-Arg-Gln-(NMe)-Arg-Try-NH2 * 4 HOAc (Ac-IK[Pqa]RHYLNWVTRQ[NMeR]Y-NH2; also: 4 HOAc salt) |  | in- | in- | in- | 1.0 |  | 
Biotin-O2Oc-Ser-O2Oc-DADOO-Cy5 [Biotin-Cy5] |  |  |  |  |  | eliminated with a low serum half-life and low exposure levels | 
IKPEAPGEDASPEAHLANEVARLHYLNLVTRQRY-NH2 [PYY_helicar] |  | in- | in- |  | 6.38 |  | 0.012
